The values below come from ChEMBL document CHEMBL1275576, “In vitro activity of tomopenem (CS-023/RO4908463) against anaerobic bacteria” (Antimicrob Agents Chemother, 2009).

The subject of one data set is Plasma. As to the kind of experiment: Plasma protein binding in human at […] by HPLC method. It is filed as ADME, cell-free.
Data set [1] is described as follows: Half life in rhesus monkey at 10 mg/kg by HPLC method. The arrangement: dose 10 mg/kg. To be noted: in vivo. The class given is ADME, organism-based, Macaca mulatta.
Data set [2] can be described thus: Half life in human at […] by HPLC method. The class given is ADME, organism-based. To be noted: in vivo.

SMILES strings stand for the structures.

By half-life is commonly meant the time in which the quantity being followed falls by half. Turning to `C[C@@H](O)[C@H]1C(=O)N2C(C(=O)O)=C(S[C@@H]3CN[C@H](C(=O)Nc4cccc(C(=O)O)c4)C3)[C@H](C)[C@H]12`, the Activity with Plasma was more than 95%. For the same molecule, the half-life in data set [1] and in data set [2] was 5 h throughout.
